Measured values: ChEMBL document CHEMBL4229367, “Identification of multi-target inhibitors of leukotriene and prostaglandin E2 biosynthesis by structural tuning of the FLAP inhibitor BRP-7” (Eur J Med Chem, 2018)

Key:
[1] = target: T1, Prostaglandin E synthase (Homo sapiens) (UniProt O14684); assay: Inhibition of mPGES1 in IL-1beta-stimulated human A549 cell microsomal fractions assessed as reduction in PGE2 production at 3 uM preincubated for 15 mins followed by PGH2 substrate addition and measured after 1 min by RP-HPLC analysis relative to control
T1 sequence (whole entry): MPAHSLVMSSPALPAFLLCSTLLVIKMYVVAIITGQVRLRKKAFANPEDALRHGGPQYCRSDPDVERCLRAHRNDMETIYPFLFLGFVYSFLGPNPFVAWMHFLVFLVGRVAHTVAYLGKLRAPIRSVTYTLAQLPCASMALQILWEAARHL

[2] = target: T2, Arachidonate 5-lipoxygenase-activating protein (Homo sapiens, UniProt P20292); assay: Inhibition of FLAP in A23187-stimulated human neutrophils assessed as reduction in 5-LO product formation preincubated for 15 mins followed by A23187 and arachidonic acid addition and measured after 10 mins by UV based RP-HPLC analysis
T2 sequence (P20292 whole entry): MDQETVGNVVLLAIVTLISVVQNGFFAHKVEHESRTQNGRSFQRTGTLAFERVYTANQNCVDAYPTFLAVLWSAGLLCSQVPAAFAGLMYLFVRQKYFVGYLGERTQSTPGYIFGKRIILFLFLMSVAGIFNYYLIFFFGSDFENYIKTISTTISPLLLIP

[3] = target: T3, Arachidonate 5-lipoxygenase-activating protein (Homo sapiens) (UniProt P20292); assay: Inhibition of FLAP in A23187-stimulated human neutrophils assessed as remaining enzyme activity by measuring 5-LO product formation at 0.1 uM preincubated for 15 mins followed by A23187 and arachidonic acid addition and measured after 10 mins by UV based RP-HPLC analysis (reference value: 100%)
T3 sequence (whole entry): T2 sequence (P20292 whole entry)

[4] = target: T3, Arachidonate 5-lipoxygenase-activating protein (Homo sapiens); assay: Inhibition of FLAP in A23187-stimulated human neutrophils assessed as remaining enzyme activity by measuring 5-LO product formation at 1 uM preincubated for 15 mins followed by A23187 and arachidonic acid addition and measured after 10 mins by UV based RP-HPLC analysis (reference value: 100%)
[5] = target: T3, Arachidonate 5-lipoxygenase-activating protein (Homo sapiens); assay: Inhibition of FLAP in A23187-stimulated human neutrophils assessed as reduction in 5-LO product formation at 1 uM preincubated for 15 mins followed by A23187 and arachidonic acid addition and measured after 10 mins by UV based RP-HPLC analysis
[6] = target: T4, Polyunsaturated fatty acid 5-lipoxygenase (Homo sapiens, UniProt P09917); assay: Inhibition of recombinant human 5-LO expressed in Escherichia coli BL21 incubated for 15 mins prior to prewarming for 30 secs followed by CaCl2+ and arachidonic acid addition and measured after 10 mins by RP-HPLC analysis
T4 sequence (P09917 whole entry): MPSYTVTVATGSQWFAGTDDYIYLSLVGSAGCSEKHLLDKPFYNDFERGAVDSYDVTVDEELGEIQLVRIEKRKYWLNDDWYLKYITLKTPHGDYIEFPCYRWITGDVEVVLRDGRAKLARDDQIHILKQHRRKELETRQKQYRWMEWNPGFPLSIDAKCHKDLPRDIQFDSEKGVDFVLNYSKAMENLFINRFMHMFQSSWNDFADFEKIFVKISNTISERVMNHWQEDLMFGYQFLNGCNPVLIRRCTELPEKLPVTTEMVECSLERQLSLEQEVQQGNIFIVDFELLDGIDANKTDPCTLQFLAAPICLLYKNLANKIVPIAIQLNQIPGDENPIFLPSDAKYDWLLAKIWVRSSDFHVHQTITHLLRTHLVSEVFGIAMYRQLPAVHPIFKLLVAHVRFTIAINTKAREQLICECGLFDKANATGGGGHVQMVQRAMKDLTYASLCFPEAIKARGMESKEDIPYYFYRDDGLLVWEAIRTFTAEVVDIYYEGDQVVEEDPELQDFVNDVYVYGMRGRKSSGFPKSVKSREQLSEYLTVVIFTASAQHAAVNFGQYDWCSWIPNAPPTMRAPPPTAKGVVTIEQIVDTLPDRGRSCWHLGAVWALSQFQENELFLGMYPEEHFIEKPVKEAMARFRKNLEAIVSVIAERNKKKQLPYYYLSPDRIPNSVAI

Leukotriene C4 synthase = target: T5, Leukotriene C4 synthase (Homo sapiens, UniProt Q16873); assay: Inhibition of human LTC4 synthase expressed in HEK293 cell microsomes preincubated for 10 mins followed by LTA4-methyl ester addition and measured after 10 mins by UPLC-MS/MS analysis
T5 sequence (Q16873 whole entry): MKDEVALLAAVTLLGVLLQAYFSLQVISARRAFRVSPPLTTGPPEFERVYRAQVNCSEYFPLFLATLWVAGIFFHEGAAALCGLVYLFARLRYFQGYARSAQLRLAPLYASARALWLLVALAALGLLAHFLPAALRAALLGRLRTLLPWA

[7] = target: T1, Prostaglandin E synthase (Homo sapiens); assay: (§1) Inhibition of mPGES1 in IL-1beta-stimulated human A549 cell microsomal fractions assessed as reduction in PGE2 production preincubated for 15 mins followed by PGH2 substrate addition and measured after 1 min by RP-HPLC analysis relative to control
Prostaglandin E synthase = target: T6, Prostaglandin E synthase (Homo sapiens, UniProt O14684); assay: as §1
T6 sequence (O14684 whole entry): T1 sequence (whole entry)

[8] = target: T3, Arachidonate 5-lipoxygenase-activating protein (Homo sapiens); assay: Inhibition of FLAP in A23187-stimulated human neutrophils assessed as remaining enzyme activity by measuring 5-LO product formation at 10 uM preincubated for 15 mins followed by A23187 and arachidonic acid addition and measured after 10 mins by UV based RP-HPLC analysis (reference value: 100%)
[9] = target: T7, Polyunsaturated fatty acid 5-lipoxygenase (Homo sapiens) (UniProt P09917); conditions: 0.3 uM
T7 sequence (whole entry): T4 sequence (P09917 whole entry)
Description: Inhibition of recombinant human 5-LO expressed in Escherichia coli BL21 at 0.3 uM incubated for 15 mins prior to prewarming for 30 secs followed by CaCl2+ and arachidonic acid addition and measured after 10 mins by RP-HPLC analysis

| inhibition [1] [%] | IC50 [2] [nM] | Activity [3] [%] | Activity [4] [%] | SMILES | further results |
| --- | --- | --- | --- | --- | --- |
| > 50 |  |  |  | CC(C)Cc1ccc(C(C)c2nc3cc(C#N)ccc3n2Cc2ccccc2Cl)cc1 (stereo unspecified) |  |
| > 50 | 1100 | 104 | 65 | CC(C)Cc1ccc(C(C)c2nc3cc(-c4ccccc4C(=O)O)ccc3n2Cc2ccccc2Cl)cc1 (stereo unspecified) |  |
| > 50 | 270 | 87.6 | 0.67 | CC(C)Cc1ccc(C(C)c2nc3cc(-c4noc(=O)[nH]4)ccc3n2Cc2ccccc2Cl)cc1 (stereo unspecified) |  |
| > 50 | > 1000 | 99.3 | 49.3 | CC(C)Cc1ccc(C(C)c2nc3c(CC(=O)O)cccc3n2Cc2ccccc2Cl)cc1 (stereo unspecified) | inhibition [5]: 50% |
|  | 1700 | 117 | 51.5 | CC(c1ccc(CC(C)(C)C)cc1)c1nc2cc(C#N)ccc2n1Cc1ccccc1Cl (stereo unspecified) |  |
|  | 130 | 64 | 0 | CC(C)Cc1ccc(C(C)c2nc3cc(C(N)=O)ccc3n2Cc2ccccc2Cl)cc1 (stereo unspecified) |  |
| < 50 | 90 | 63.1 | 0.45 | CC(C)Cc1ccc(C(C)c2nc3cc(-c4nnco4)ccc3n2Cc2ccccc2Cl)cc1 (stereo unspecified) |  |
|  | 400 | 85 | 85 | CC(C)Cc1ccc(C(C)c2nc3c(C(=O)O)cccc3n2Cc2ccccc2Cl)cc1 (stereo unspecified) |  |
| > 50 | 40 | 3.73 | 0 | CC(C)Cc1ccc(C(C)c2nc3cc(-c4ccc(C(=O)O)cc4)ccc3n2Cc2ccccc2Cl)cc1 (stereo unspecified) | IC50 [6]: 3200 nM; IC50 (Leukotriene C4 synthase): 15900 nM; inhibition [7]: Dose-dependent effect; IC50 (Prostaglandin E synthase): 2100 nM |
| > 50 | 190 | 85 | 1 | CC(C)Cc1ccc(C(C)c2nc3c(CCC(=O)O)cccc3n2Cc2ccccc2Cl)cc1 (stereo unspecified) |  |
| > 50 | 320 | 90.2 | 0 | CC(C)Cc1ccc(C(C)c2nc3cc(-c4nnn[nH]4)ccc3n2Cc2ccccc2Cl)cc1 (stereo unspecified) |  |
|  |  | 93 | 74.3 | CC(C)Cc1ccc(-c2nc3cc(C#N)ccc3n2Cc2ccccc2Cl)cc1 |  |
|  | > 10000 | 93.6 | 98.5 | N#Cc1ccc2c(c1)nc(NCc1ccc3cc[nH]c3c1)n2Cc1ccccc1Cl | Activity [8]: 84% |
| < 50 | 370 | 85.5 | 8.3 | N#Cc1ccc2c(c1)nc(CCc1ccc(-c3cnc(N)nc3)cc1)n2Cc1ccccc1Cl |  |
|  | 18000 | 118 | 87.2 | CC(C)CCc1ccc(C(C)c2nc3cc(C#N)ccc3n2Cc2ccccc2Cl)cc1 (stereo unspecified) | Activity [8]: 66% |
|  | 660 | 85.6 | 25.6 | N#Cc1ccc2c(c1)nc(CCc1ccc(-c3ccc(N)nn3)cc1)n2Cc1ccccc1Cl |  |
|  | 260 | 72.7 | 3.5 | N#Cc1ccc2c(c1)nc(CCc1ccc(-c3cnc(N)cn3)cc1)n2Cc1ccccc1Cl |  |
| > 50 | 280 | 77.8 | 16.8 | CC(C)Cc1ccc(C(C)c2nc3cc(S(N)(=O)=O)ccc3n2Cc2ccccc2Cl)cc1 (stereo unspecified) |  |
|  |  |  |  | CC(=O)N(O)C/C=C/c1cccc(Oc2ccccc2)c1 | inhibition [9]: > 70% |

| inhibition [1] [%] | IC50 [2] [nM] | Activity [3] [%] | Activity [4] [%] | SMILES | further results |
| --- | --- | --- | --- | --- | --- |
| > 50 | 74 | 33 | 0 | CC(C)Cc1ccc(C(C)c2nc3cc(-c4cccc(C(=O)O)c4)ccc3n2Cc2ccccc2Cl)cc1 (stereo unspecified) |  |
|  | 370 |  |  | C=C(Cc1ccc(-c2cnc(N)nc2)cc1)c1nc2cc(C#N)ccc2n1Cc1ccccc1Cl |  |
|  | 3800 | 92.3 | 84.7 | N#Cc1ccc2c(c1)nc(NCc1ccc3[nH]ccc3c1)n2Cc1ccccc1Cl | Activity [8]: 44% |
|  | 700 | 92.1 | 33.6 | CCC(C)c1ccc(C(C)c2nc3cc(C#N)ccc3n2Cc2ccccc2Cl)cc1 (stereo unspecified) |  |
|  |  |  |  | CC(C)c1ccc2c(c1)c(SC(C)(C)C)c(CC(C)(C)C(=O)O)n2Cc1ccc(Cl)cc1 | IC50 [6]: 3000 nM |
| > 50 | 180 | 67.3 | 6.38 | CC(C)Cc1ccc(C(C)c2nc3cc(OCC(=O)O)ccc3n2Cc2ccccc2Cl)cc1 (stereo unspecified) |  |
|  | 8800 | 97.1 | 99.2 | N#Cc1ccc2c(c1)nc(NCCc1c[nH]c3ccccc13)n2Cc1ccccc1Cl | Activity [8]: 63% |
| > 50 | 50 | 41.4 | 0 | CC(C)Cc1ccc(C(C)c2nc3cc(-c4n[nH]c(=S)o4)ccc3n2Cc2ccccc2Cl)cc1 (stereo unspecified) | IC50 [6]: 600 nM; IC50 (Leukotriene C4 synthase): 6190 nM; inhibition [7]: Dose-dependent effect; IC50 (Prostaglandin E synthase): 420 nM |
|  | 180 | 79 | 1.9 | Cc1nc(-c2ccc3c(c2)nc(C(C)c2ccc(CC(C)C)cc2)n3Cc2ccccc2Cl)no1 (stereo unspecified) |  |
| > 50 | 200 | 75.9 | 5.47 | CC(C)Cc1ccc(C(C)c2nc3cc(OC(C)(C)C(=O)O)ccc3n2Cc2ccccc2Cl)cc1 (stereo unspecified) |  |
| > 50 | 450 | 91.4 | 16.1 | CC(C)Cc1ccc(C(C)c2nc3cc(CC(=O)O)ccc3n2Cc2ccccc2Cl)cc1 (stereo unspecified) |  |
| > 50 | 150 | 72.7 | 1.06 | CC(C)Cc1ccc(C(C)c2nc3cc(-c4nc(C(=O)O)cs4)ccc3n2Cc2ccccc2Cl)cc1 (stereo unspecified) |  |
|  |  | 93.7 | 68.4 | CC(C)Oc1ccc(-c2nc3cc(C#N)ccc3n2Cc2ccccc2Cl)cc1 |  |
|  | 250 | 76.1 | 1.4 | N#Cc1ccc2c(c1)nc(CCc1ccc(-c3ccc(N)nc3)cc1)n2Cc1ccccc1Cl |  |
| > 50 | 280 | 71.1 | 0 | CC(C)Cc1ccc(C(C)c2nc3cc(C(=O)O)ccc3n2Cc2ccccc2Cl)cc1 (stereo unspecified) |  |
|  | 160 | 63.1 | 0.45 | CC(C)Cc1ccc(C(C)c2nc3cc(C(N)=S)ccc3n2Cc2ccccc2Cl)cc1 (stereo unspecified) |  |
| < 50 | 420 | 84.1 | 4.2 | CC(Cc1ccc(-c2cnc(N)nc2)cc1)c1nc2cc(C#N)ccc2n1Cc1ccccc1Cl (stereo unspecified) |  |
|  | 100 | 40.5 | 0.5 | CC(C)Cc1ccc(C(C)c2nc3cc(-c4n[nH]c(=O)o4)ccc3n2Cc2ccccc2Cl)cc1 (stereo unspecified) |  |
